Laboratory results from patent US20250368649A1, “TETRAHYDROPYRIDOPYRIMIDINE PAN-KRAS INHIBITORS” (Mirati Therapeutics, Inc., priority 2022, published 2025).

Assays:
[1] = target: KRas G12C (Homo sapiens, UniProt P01116, G12C); assay type: binding; conditions: TR-FRET displacement, read-out: Binding to KRas (IC50 nM) G12C
[2] = target: KRas Q61H (Homo sapiens, UniProt P01116, Q61H); test: KRas binding assay (TR-FRET displacement), KRas Q61H; conditions: TR-FRET displacement
[3] = target: KRas WT (Homo sapiens, UniProt P01116); test: KRas binding assay (TR-FRET displacement), KRas WT; conditions: TR-FRET displacement
[4] = target: KRas G12D (Homo sapiens, UniProt P01116, G12D); test: biochemical; conditions: Binding to KRas (IC50 nM) G12D, TR-FRET displacement, KRas G12D
[5] = target: KRas G12V (Homo sapiens, UniProt P01116, G12V); test: biochemical; conditions: Binding to KRas (IC50 nM) G12V, TR-FRET displacement, KRas G12V
[6] = target: KRas G13D (Homo sapiens, UniProt P01116, G13D); assay type: binding; conditions: TR-FRET displacement, read-out: Binding to KRas (IC50 nM) G13D
[7] = target: KRas G12S (Homo sapiens, UniProt P01116, G12S); assay type: binding; conditions: TR-FRET displacement, read-out: Binding to KRas (IC50 nM) G12S
[8] = target: KRas G12A (Homo sapiens, UniProt P01116, G12A); assay type: binding; conditions: TR-FRET displacement, read-out: Binding to KRas (IC50 nM) G12A
Sequence of KRas G12A (P01116 1-169 isoform P01116-2 G12A): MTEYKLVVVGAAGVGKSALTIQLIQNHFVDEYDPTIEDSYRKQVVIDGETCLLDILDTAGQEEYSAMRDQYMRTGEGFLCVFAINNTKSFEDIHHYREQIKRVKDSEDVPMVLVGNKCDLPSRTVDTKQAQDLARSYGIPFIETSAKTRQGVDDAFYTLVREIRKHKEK

Sequence of KRas G12V (P01116 1-169 isoform P01116-2 G12V): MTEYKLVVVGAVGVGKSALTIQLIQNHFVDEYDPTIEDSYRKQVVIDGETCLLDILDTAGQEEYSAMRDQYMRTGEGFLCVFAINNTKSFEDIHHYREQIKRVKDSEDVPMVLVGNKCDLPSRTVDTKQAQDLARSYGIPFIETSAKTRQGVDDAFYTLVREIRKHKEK
Sequence of KRas WT (P01116 1-169 isoform P01116-2): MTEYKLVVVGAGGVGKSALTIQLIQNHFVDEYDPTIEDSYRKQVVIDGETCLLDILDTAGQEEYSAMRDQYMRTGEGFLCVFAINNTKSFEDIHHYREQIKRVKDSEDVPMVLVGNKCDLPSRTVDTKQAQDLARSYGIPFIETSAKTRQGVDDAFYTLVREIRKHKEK
Sequence of KRas G12S (P01116 1-169 isoform P01116-2 G12S): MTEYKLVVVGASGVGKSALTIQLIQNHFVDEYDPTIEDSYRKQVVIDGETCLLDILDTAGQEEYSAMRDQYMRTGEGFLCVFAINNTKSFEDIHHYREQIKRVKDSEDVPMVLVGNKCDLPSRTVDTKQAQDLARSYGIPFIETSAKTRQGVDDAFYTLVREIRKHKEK
Sequence of KRas G13D (P01116 1-169 isoform P01116-2 G13D): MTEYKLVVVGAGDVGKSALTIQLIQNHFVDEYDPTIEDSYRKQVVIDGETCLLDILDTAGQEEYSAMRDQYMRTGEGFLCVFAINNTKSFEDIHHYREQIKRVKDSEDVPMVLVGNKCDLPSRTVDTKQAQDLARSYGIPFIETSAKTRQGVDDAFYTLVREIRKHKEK
Sequence of KRas Q61H (P01116 1-169 isoform P01116-2 Q61H): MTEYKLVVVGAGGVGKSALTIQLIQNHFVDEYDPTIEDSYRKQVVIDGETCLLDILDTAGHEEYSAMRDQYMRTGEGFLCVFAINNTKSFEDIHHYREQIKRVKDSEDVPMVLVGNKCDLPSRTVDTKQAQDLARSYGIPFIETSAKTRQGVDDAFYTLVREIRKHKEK
Sequence of KRas G12D (P01116 1-169 isoform P01116-2 G12D): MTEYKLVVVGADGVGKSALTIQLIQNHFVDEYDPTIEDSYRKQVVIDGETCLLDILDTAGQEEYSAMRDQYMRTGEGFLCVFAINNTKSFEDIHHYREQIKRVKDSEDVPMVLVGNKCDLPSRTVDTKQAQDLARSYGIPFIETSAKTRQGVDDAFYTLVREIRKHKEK
Sequence of KRas G12C (P01116 1-169 isoform P01116-2 G12C): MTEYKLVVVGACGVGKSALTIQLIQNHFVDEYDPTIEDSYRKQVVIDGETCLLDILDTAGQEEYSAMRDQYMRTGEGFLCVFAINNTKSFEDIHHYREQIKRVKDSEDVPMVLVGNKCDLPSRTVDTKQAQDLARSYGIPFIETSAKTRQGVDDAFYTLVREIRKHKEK

Compound | IC50 [1] [nM] | IC50 [2] [nM] | IC50 [3] [nM] | IC50 [4] [nM] | IC50 [5] [nM] | IC50 [6] [nM] | IC50 [7] [nM] | IC50 [8] [nM]
CCc1cccc2cccc(N3CCc4c(nc(OCC5(CN(C)C)CC5)nc4NCCc4c(C)n[nH]c4C)C3)c12 [Example 554, N-(2-(3,5-dimethyl-1H-pyrazol-4-yl)ethyl)-2-((1-((dimethylamino)methyl)cyclopropyl)methoxy)-7-(8-ethylnaphthalen-1-yl)-5,6,7,8-tetrahydropyrido[3,4-d]pyrimidin-4-amine] | 803 | 1210 | 2750 | 18600 | 3830 | 2660 | 1750 | 2420
CCc1cccc2cccc(N3CCc4c(nc(OCC5(CN(C)C)CC5)nc4N4CCOC(c5n[nH]c(CO)n5)C4)C3)c12 (stereo not drawn) [Example 532, (3-(4-(2-((1-((dimethylamino)methyl)cyclopropyl)methoxy)-7-(8-ethylnaphthalen-1-yl)-5,6,7,8-tetrahydropyrido[3,4-d]pyrimidin-4-yl)morpholin-2-yl)-1H-1,2,4-triazol-5-yl)methanol] | 370 | 901 | 910 | 7260 | 756 | 1150 | 700 | 649
CCc1cccc2cccc(N3CCc4c(nc(OCC5(CN(C)C)CC5)nc4N4Cc5nncn5C(C)C4)C3)c12 (stereo not drawn) [Example 519, 1-(1-(((7-(8-ethylnaphthalen-1-yl)-4-(5-methyl-5,6-dihydro-[1,2,4]triazolo[4,3-a]pyrazin-7(8H)-yl)-5,6,7,8-tetrahydropyrido[3,4-d]pyrimidin-2-yl)oxy)methyl)cyclopropyl)-N,N-dimethylmethanamine] | 2850 | 5920 | 5230 | 2000 | 1560 | 8140 | 5480 | 5580
CCc1cccc2cccc(N3CCc4c(nc(OCC5(CN(C)C)CC5)nc4N4CC(CO)C(c5cncn5C)C4)C3)c12 (stereo not drawn) [Example 553, (1-(2-((1-((dimethylamino)methyl)cyclopropyl)methoxy)-7-(8-ethylnaphthalen-1-yl)-5,6,7,8-tetrahydropyrido[3,4-d]pyrimidin-4-yl)-4-(1-methyl-1H-imidazol-5-yl)pyrrolidin-3-yl)methanol] | 1580 | 7300 | 5060 | 18500 | 2760 | 7560 | 3310 | 2270
CCc1cccc2cccc(N3CCc4c(nc(OCC5(CN(C)C)CC5)nc4NCCN4CCNC4=O)C3)c12 [Example 555, 1-(2-((2-((1-((dimethylamino)methyl)cyclopropyl)methoxy)-7-(8-ethylnaphthalen-1-yl)-5,6,7,8-tetrahydropyrido[3,4-d]pyrimidin-4-yl)amino)ethyl)imidazolidin-2-one] | 9190 | 19700 | 12200 | 19000 | 6180 | 16400 | 15000 | 11900
CCc1cccc2cccc(N3CCc4c(nc(OCC5(CN(C)C)CC5)nc4N4CCC(F)C(OC)C4)C3)c12 (stereo not drawn) [Example 543, 1-(1-(((7-(8-ethylnaphthalen-1-yl)-4-(4-fluoro-3-methoxypiperidin-1-yl)-5,6,7,8-tetrahydropyrido[3,4-d]pyrimidin-2-yl)oxy)methyl)cyclopropyl)-N,N-dimethylmethanamine] | 634 | 2400 | 1500 | 12100 | 3940 | 2270 | 750 | 1200
CCc1cccc2cccc(N3CCc4c(nc(OCC5(CN(C)C)CC5)nc4N4CCn5nncc5C4)C3)c12 [Example 665, 1-(1-(((4-(6,7-dihydro-[1,2,3]triazolo[1,5-a]pyrazin-5(4H)-yl)-7-(8-ethylnaphthalen-1-yl)-5,6,7,8-tetrahydropyrido[3,4-d]pyrimidin-2-yl)oxy)methyl)cyclopropyl)-N,N-dimethylmethanamine] | 37800 | > 100000 | 87600 | 6840 | 10800 | > 100000 | 62800 | 83100
CCc1cccc2cccc(N3CCc4c(nc(OCC5(CN(C)C)CC5)nc4NCc4nnn(C(C)(C)C)n4)C3)c12 [Example 550, N-((2-(tert-butyl)-2H-tetrazol-5-yl)methyl)-2-((1-((dimethylamino)methyl)cyclopropyl)methoxy)-7-(8-ethylnaphthalen-1-yl)-5,6,7,8-tetrahydropyrido[3,4-d]pyrimidin-4-amine] | 16300 | 27100 | 32400 | 17600 | 8180 | 35300 | 28800 | 33600
CCc1cccc2cccc(N3CCc4c(nc(OCC5(CN(C)C)CC5)nc4NCc4ncn(-c5ccccc5)n4)C3)c12 [Example 556, 2-((1-((dimethylamino)methyl)cyclopropyl)methoxy)-7-(8-ethylnaphthalen-1-yl)-N-((1-phenyl-1H-1,2,4-triazol-3-yl)methyl)-5,6,7,8-tetrahydropyrido[3,4-d]pyrimidin-4-amine] | 16800 | 44100 | 22900 | 19900 | 7060 | 31700 | 26400 | 26600
CCc1cccc2cccc(N3CCc4c(nc(OCC5(CN(C)C)CC5)nc4N4CCC(n5cn[nH]c5=O)CC4)C3)c12 [Example 688, 4-(1-(2-((1-((dimethylamino)methyl)cyclopropyl)methoxy)-7-(8-ethylnaphthalen-1-yl)-5,6,7,8-tetrahydropyrido[3,4-d]pyrimidin-4-yl)piperidin-4-yl)-2,4-dihydro-3H-1,2,4-triazol-3-one] | 10000 | 18100 | 14600 | 37400 | 6430 | 14500 | 17700 | 9730
CCc1cccc2cccc(N3CCc4c(nc(OCC5(CN(C)C)CC5)nc4NCc4nc(C(O)C5CC5)n[nH]4)C3)c12 (stereo not drawn) [Example 520, cyclopropyl(5-(((2-((1-((dimethylamino)methyl)cyclopropyl)methoxy)-7-(8-ethylnaphthalen-1-yl)-5,6,7,8-tetrahydropyrido[3,4-d]pyrimidin-4-yl)amino)methyl)-1H-1,2,4-triazol-3-yl)methanol] | 2290 | 5940 | 4610 | 2460 | 3990 | 5070 | 2900 | 4150
CCc1cccc2cccc(N3CCc4c(nc(OCC5(CN(C)C)CC5)nc4NCc4nnc5c(Cl)cccn45)C3)c12 [Example 563, N-((8-chloro-[1,2,4]triazolo[4,3-a]pyridin-3-yl)methyl)-2-((1-((dimethylamino)methyl)cyclopropyl)methoxy)-7-(8-ethylnaphthalen-1-yl)-5,6,7,8-tetrahydropyrido[3,4-d]pyrimidin-4-amine] | 697 | 231 | 776 | 30500 | 6510 | 1040 | 320 | 1370
CCc1cccc2cccc(N3CCc4c(nc(OCC5(CN(C)C)CC5)nc4N4CCOC(CNC(=O)NC)C4)C3)c12 (stereo not drawn) [Example 546, 1-((4-(2-((1-((dimethylamino)methyl)cyclopropyl)methoxy)-7-(8-ethylnaphthalen-1-yl)-5,6,7,8-tetrahydropyrido[3,4-d]pyrimidin-4-yl)morpholin-2-yl)methyl)-3-methylurea] | 2630 | 3310 | 2640 | 13600 | 4640 | 4620 | 3570 | 3800
CCc1cccc2cccc(N3CCc4c(nc(OCC5(CN(C)C)CC5)nc4N(C)Cc4nnc5n4CCNC5=O)C3)c12 [Example 529, 3-(((2-((1-((dimethylamino)methyl)cyclopropyl)methoxy)-7-(8-ethylnaphthalen-1-yl)-5,6,7,8-tetrahydropyrido[3,4-d]pyrimidin-4-yl)(methyl)amino)methyl)-6,7-dihydro-[1,2,4]triazolo[4,3-a]pyrazin-8(5H)-one] | 1200 | 1410 | 2000 | 6570 | 3000 | 2110 | 1060 | 1380
CCc1cccc2cccc(N3CCc4c(nc(OCC5(CN(C)C)CC5)nc4NCc4nnnn4C4CCC4)C3)c12 [Example 533, N-((1-cyclobutyl-1H-tetrazol-5-yl)methyl)-2-((1-((dimethylamino)methyl)cyclopropyl)methoxy)-7-(8-ethylnaphthalen-1-yl)-5,6,7,8-tetrahydropyrido[3,4-d]pyrimidin-4-amine] | 3860 | 9980 | 7620 | 7360 | 2680 | 12300 | 4920 | 5970
